Results on five molecules are retold here after patent US11104881B2, “Method for highly efficient conversion of human stem cells to lineage-specific neurons” (THE JOHNS HOPKINS UNIVERSITY, priority 2013, dated 2021).

Entries after “also recorded” stand apart in the source; their conditions may differ.

For series [1], the system named is Atoh1-induced neurons. The series is classed as cell-based, human.
In series [2] the test system is Atoh1-induced DA neurons derived from human iPSCs. Type of series: cell-based. Conditions: 40 μM and 100 μM for 15 minutes. As to the method: Neuron culture medium was changed to neurobasal medium before treatment. 6-OHDA was freshly prepared in vehicle solution (ascorbic acid (0.15%) in H2O) and quickly added to the neuron culture. Control cells were treated with vehicle solution alone. After 15 min at 37° C., the medium was removed and neurons were gently washed twice with Neurobasal Medium. 200 μl neuron culture medium (Neurobasal Medium with B27 Supplement) was added to each well and further incubated for 24 h. Cytotoxicity induced by 6-OHDA was measured using LDH Cytotoxicity Detection Kit (Roche) following the manufacturer's protocol. The percentage cytotoxicity was calculated using the following equation: Cytotoxicity (%)=(Experiment Value−Low Control)/(High Control−Low Control)×100. (Low control: culture medium; High control: total cell lysate).
6-hydroxydopamine (6-OHDA) is a neurotoxin widely used to induce neurotoxicity both in vivo and in vitro to model DA neuron loss in PD pathogenesis. […] Here, we tested the response of Atoh1-induced DA neurons to 6-OHDA treatment. […] Thus, Atoh1-induced DA neurons derived from human iPSCs are sensitive to 6-OHDA treatment at a concentration that selectively damages primary DA neurons isolated from substantia nigra.

Series [3] concerns primary DA neurons from substantia nigra. Conditions: 6-OHDA 40 μM; cited from earlier work.
In another series the test system is Atoh1-iPSCs. The experiment in a line: Dox-inducible Atoh1 expression measured by qRT-PCR. Type of series: cell-based, human. Conditions: Dox treatment for 2 days. As to the method:
Total RNA was extracted using the RNeasy Mini kit (Qiagen). Reverse transcription was performed using MuLV reverse transcriptase (Applied biosystems) and Oligo(dT) primers. qRT-PCR was performed using SYBR Green PCR Master Mix (Applied Biosystems) and IQ5 RT-PCR detection system (Bio-rad). Relative expression of each gene was normalized to the 18S rRNA. To further optimize the Atoh1-mediated differentiation strategy, we asked what is the minimum time of Atoh1 induction for successful neuronal conversion. Equal numbers of Atoh1-iPSCs received different durations of Dox treatment (1 to 5 days), after which cells were replated and allowed to mature in vitro for additional 30 days. […] In contrast, Dox treatment for 2 to 5 days successfully differentiated iPSCs into neurons expressing TUJ1 and MAP2 (FIG. 9). […] To compare the level of neurogenic signaling before and after silencing ectopic Atoh1 expression, we treated Atoh1-iPSCs with Dox for 2 days and then withdrew Dox for 3 days (FIGS. 2J and 2K).
(Real-time PCR tracks product formation cycle by cycle.)

The subject of series [4] is Atoh1-induced neurons. The experiment in a line: Current-clamp recording, negative current injection: hyperpolarization sag and rebound action potentials. Conditions: ML252 5 μM. Type of series: cell-based, human.
The test system of the next series is Atoh1-induced DA neurons. The series is classed as cell-based, human.

Turning to `Nc1ccncc1` [4-AP], in the series with Atoh1-induced neurons [1] (4-AP 25 μM, together with TTX, voltage-clamp), the “effect on potassium current” value is reported as “significantly attenuated”.

With `NCCc1cc(O)c(O)cc1O` [6-OHDA, 6-hydroxydopamine], the “neuron death by LDH Cytotoxicity assay” value in series [2] (LDH after 24 h) was “neuron death was also confirmed”. The “morphological signs of neuron death (cell condensation, neurite fragmentation)” value in series [2] (differentiation day 36, read 24 hours after treatment) is given as “caused morphological signs of neuron death”. The “DA neuron loss in rat substantia nigra neuron cultures” value in series [3] is on record as “causes selective DA neuron loss without affecting GABA neurons”.

For the molecule `C[C@H]1c2cccc(O)c2C(=O)C2=C(O)[C@]3(O)C(=O)C(C(N)=O)=C(O)[C@@H](N(C)C)[C@@H]3[C@@H](O)[C@@H]21` [Dox, Doxycycline], the “Atoh1 up-regulation by qRT-PCR versus control” value with Atoh1-iPSCs is reported as 49 fold.

Consider `CC[C@H](C(=O)Nc1ccccc1N1CCCC1)c1ccccc1` [ML252], for which the “effect on hyperpolarization sag and rebound action potentials” value in the series with Atoh1-induced neurons [4] was “dampened; also recorded: blocked”.

Take `NC1=N[C@H](O)[C@H]2[C@H]3O[C@]4(O)O[C@@H]([C@@H](O)[C@@]2(N1)[C@@H]4O)[C@]3(O)CO` [TTX, tetrodotoxin]: in the series on Atoh1-induced DA neurons, the “effect on train of evoked action potentials” value was “suppressed; also recorded: completely blocked” and the “time to recovery of action potentials after TTX washout” value came to 17 min. Further, the “effect on sodium current” value with Atoh1-induced neurons [1] is “significantly attenuated”.
